In PMC4995014, “Identification of ABC Transporter Interaction of a Novel Cyanoquinoline Radiotracer and Implications for Tumour Imaging by Positron Emission Tomography” (PLoS ONE, 2016) one finds efflux ratio and GI50 data, which are given here for one compound.

A short description of series [1]: Caco2 transwell assay. The series is classed as in vitro ADME, human. The following applies: human, Caco-2, with verapamil 10 mg/mL, pre-treatment for 1 h, pre-treatment with 10 mg/mL verapamil for 1 h; read-out: efflux ratio in the presence of verapamil. As for the experimental part:
The caco2 transwell assay was performed to assess permeability. Cells were seeded at a density of 60,000 cells per well in 24 well transwell plates (Millipore, Billerica, Massachutsetts, USA), and maintained in DMEM supplemented with […] glucose (20% FBS, 1% penicillin/streptomycin, 1% glutamine) for 21 days at 37°C in 5% CO2. After 21 days the cells differentiate into enterocytes and express all three MDR proteins, ABCB1 and ABCG2 at the apical side and ABCC1 on the basal side. On day 21, cells were washed three times with Hank's Balanced Salt Solution (HBSS) (Fisher scientific, Loughborough, UK) and the trans-epithelial electric resistance (TERR) was measured using an Epithelial Voltohmmeter (EVOM) (World Precision Instruments, Sarasota, USA); only transwells with TERR of 400 Ω/cm^2 or above were used for the experiment. Cells were treated either at the apical (n = 3) or basal (n = 3) side of the transwell by addition of 10 μM of cyanoquinoline compound or 50 μM vinblastine prepared in a volume of 400 μL HBSS (compound added to apical well) or 800 μL of HBSS (added to basal well). When transport inhibitors FTC (10 μM) or zosuquidar (0.3 μM) were used, they were added to both the apical and basal wells 1 h prior to drug treatment. After 1 h pre-treatment the medium was removed and cells were treated with the compounds prepared in HBSS containing FTC or Zosuquidar.
Plates were incubated in shaker incubator at 37°C and 60 rpm for 120 min. After incubation, 200 μL aliquots from the apical and the basal wells were collected and analysed using high performance liquid chromatography (HPLC). Samples were run on a Millipore Waters HPLC system which included a 717 plus autosampler and 2487 dual wavelength absorbance detector system. The stationary phase comprised of a Phenomenex Luna C18 reverse phase column (150 X 4.6 mm; 5 μm particle size). The mobile phase comprised water (0.1% TFA) and acetonitrile (0.1% TFA) (80:20 v/v) at a flow rate of 1 mL/min for all compounds except vinblastine. For vinblastine, the stationary phase comprised a Supelcosil LC-ABZ reverse phase column (5 × 4.6 mm; 5 μm particle size). The mobile phase comprised water (0.1% formic acid) and methanol (90:10 to 10:90 v/v gradient over 20 min). Peak areas corresponding to the compounds of interest were recorded. Using standard curves the areas under the curve were converted into concentrations of compound. The permeability coefficient (Papp) was calculated using the following equation [30]: Papp = (dQ/dt)/A C0, where A is the surface area of the transwell membrane in cm^2 (= 0.33 cm^2), C0 is the drug concentration in the donor chamber at time t = 0 and dQ/dt is the rate of transfer of the compound to the receiver chamber, determined from the slope of the graph concentration (dQ) versus time (dt). Papp values corresponding to absorption and secretion were assessed and used to calculate efflux ratio. Efflux ratio =(Papp B−A)/(Papp A−B) Where Papp A-B = Papp absorption and Papp B-A = Papp secretion.
The integrity of the caco2 cell membrane was assessed for each well following the experiment by addition of a 100 μM solution of […] (Sigma) in HBSS to the apical side of the plate. The plates were placed in the shaker incubator for 1 h at 37°C and 60 rpm. Samples from the basal wells were transferred into a 96 well plate and the levels of […] were assessed by measuring with an excitation of 450 nm and an emission of 540 nm using the PerkinElmer Wallac 1420 counter.

Series [2] concerns MCF7 cells. Briefly: SRB cell viability assay in MCF7 cells. The series is classed as cell-based. The following applies: Homo sapiens, 72 h. How it is done:
Cell viability by the sulforhodamine B (SRB) assay was used to assess cell growth and cytotoxicity of test compounds [29]. Cells were seeded at densities of 3,500 to 5,000 cells per well in 96 well plates overnight and pre-treated for 1 h with ABC transporter modulators: 10 μM fumitremorgin C (FTC; in MCF7MX and MCF7 cells), or 0.3 μM of zosuquidar (in 3T3 and 3T3-MDR1). Cells were then treated with test compounds for 72 h, at 37°C. After drug treatment, cells were fixed by addition of 50% trichloroacetic acid (TCA), and the plates washed and dried to allow staining with 0.4% solution of sulforhodamine B (Sigma) in 1% acetic acid for 30 minutes. Excess dye was removed upon washing with 1% acetic acid. Plates were dried and bound protein was solubilised upon addition of 150 μL of 10 mM Tris base buffer. Absorbance was measured at 540 nm using Thermo Multiskan-Ex plate reader. Cell viability versus compound concentration curves were plotted as a percentage of control cells. The concentration of drug that gave 50% inhibition in cell growth (GI50) was extrapolated from these curves using the sigmoid curve fit with variable slope in Prism (GraphPad Prism version 5.01, GraphPad Software, San Diego California USA). Three to six replicate wells were used for each drug concentration and experiments were carried out on three separate occasions for each compound.

SMILES strings stand for the structures.

On to `CCOc1cc2ncc(C#N)c(Nc3ccc(F)c(Cl)c3)c2cc1NC(=O)/C=C/CNCc1cn(CCF)nn1` [FED6, (2E)-N-{4-[(3-chloro-4-fluorophenyl)amino]-3-cyano-7-ethoxyquinolin-6-yl}-4-({[1-(2-fluoroethyl)-1H-1,2,3-triazol-4-yl]methyl}amino)-but-2-enamide], for which, in series [1], the efflux ratio at 120 min, 10 μM was 1.1. In addition, the results for the GI50 in series [2] (1 h pre-treatment with 10 μM FTC) and in series [2] (without FTC) were 12.3 ± 7.1 µM and 12 ± 6.93 µM, respectively.
